According to ChEMBL document CHEMBL1152951, “Tabernines A-C, beta-carbolines from the leaves of Tabernaemontana elegans” (J Nat Prod, 2009):

Columns and labels:
[1] = molecular target: T1, ATP-dependent translocase ABCB1 (Homo sapiens, UniProt P08183); assay: Reversal of human MDR1-mediated multidrug resistance in mouse L5178Y cells expressing MDR1 assessed as fluorescence activity ratio at 20 uM after 10 mins by rhodamine-123 exclusion test; format: cell-based
[2] = molecular target: T1, ATP-dependent translocase ABCB1; assay: Reversal of human MDR1-mediated multidrug resistance in mouse L5178Y cells expressing MDR1 assessed as mean fluorescence intensity of rhodamine-123 uptake at 20 uM after 10 mins by flow cytometry; format: cell-based
[3] = molecular target: T1, ATP-dependent translocase ABCB1; assay: Reversal of human MDR1-mediated multidrug resistance in mouse L5178Y cells expressing MDR1 assessed as mean fluorescence intensity of rhodamine-123 uptake at 2 uM after 10 mins by flow cytometry; format: cell-based
L5178Y [4] = assay: Antiproliferative activity against mouse L5178Y cells after 72 hrs by MTT assay; format: functional; conditions: read-out: ID50 (the source's name)
L5178Y [5] = assay: Antiproliferative activity against multidrug resistant mouse L5178Y cells expressing human MDR1 after 72 hrs by MTT assay; format: functional; conditions: read-out: ID50 (the source's name)
[6] = molecular target: T1, ATP-dependent translocase ABCB1; assay: Reversal of human MDR1-mediated multidrug resistance in mouse L5178Y cells expressing MDR1 assessed as fluorescence activity ratio at 2 uM after 10 mins by rhodamine-123 exclusion test; format: cell-based
[7] = molecular target: T1, ATP-dependent translocase ABCB1; conditions: l5178y, 10 min, 22.2 µM
Description: Reversal of human MDR1-mediated multidrug resistance in mouse L5178Y cells expressing MDR1 assessed as mean fluorescence intensity of rhodamine-123 uptake at 22.2 uM after 10 mins by flow cytometry

T1 sequence (P08183 whole entry): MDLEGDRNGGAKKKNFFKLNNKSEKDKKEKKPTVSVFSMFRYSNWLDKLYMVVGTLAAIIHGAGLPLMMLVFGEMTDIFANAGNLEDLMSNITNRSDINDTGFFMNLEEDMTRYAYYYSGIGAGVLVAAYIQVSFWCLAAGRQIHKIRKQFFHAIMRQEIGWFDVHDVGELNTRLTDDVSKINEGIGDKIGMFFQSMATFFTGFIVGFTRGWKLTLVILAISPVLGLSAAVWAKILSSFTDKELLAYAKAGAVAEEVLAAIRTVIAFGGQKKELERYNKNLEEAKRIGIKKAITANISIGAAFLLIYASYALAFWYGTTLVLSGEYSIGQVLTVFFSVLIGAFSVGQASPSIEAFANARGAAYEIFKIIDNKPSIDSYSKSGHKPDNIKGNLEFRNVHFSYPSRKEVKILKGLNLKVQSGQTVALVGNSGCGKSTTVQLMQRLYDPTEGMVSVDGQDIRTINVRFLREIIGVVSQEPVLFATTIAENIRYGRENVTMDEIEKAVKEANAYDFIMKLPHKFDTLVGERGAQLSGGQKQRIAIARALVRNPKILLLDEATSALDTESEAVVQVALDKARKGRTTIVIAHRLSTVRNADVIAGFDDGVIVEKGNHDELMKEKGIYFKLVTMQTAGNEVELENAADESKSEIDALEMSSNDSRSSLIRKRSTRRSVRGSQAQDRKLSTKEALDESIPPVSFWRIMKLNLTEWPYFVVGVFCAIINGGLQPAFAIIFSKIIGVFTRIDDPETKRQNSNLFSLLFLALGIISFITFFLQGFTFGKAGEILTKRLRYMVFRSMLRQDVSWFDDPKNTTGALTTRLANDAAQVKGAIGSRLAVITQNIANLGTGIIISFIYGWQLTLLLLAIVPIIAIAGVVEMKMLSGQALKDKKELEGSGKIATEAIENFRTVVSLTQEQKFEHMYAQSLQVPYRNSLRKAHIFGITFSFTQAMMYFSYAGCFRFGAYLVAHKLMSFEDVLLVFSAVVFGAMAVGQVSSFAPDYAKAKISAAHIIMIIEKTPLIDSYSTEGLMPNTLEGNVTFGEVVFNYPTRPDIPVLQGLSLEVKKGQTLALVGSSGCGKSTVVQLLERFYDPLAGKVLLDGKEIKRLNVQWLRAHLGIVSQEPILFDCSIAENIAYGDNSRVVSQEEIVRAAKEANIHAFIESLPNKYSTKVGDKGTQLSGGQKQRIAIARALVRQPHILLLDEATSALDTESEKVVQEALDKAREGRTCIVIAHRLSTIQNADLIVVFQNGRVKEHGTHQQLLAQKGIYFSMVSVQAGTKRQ

| Structure (SMILES) | Ratio [1] | Flu intensity [2] | Flu intensity [3] | IC50 (L5178Y [4]) [µM] | IC50 (L5178Y [5]) [µM] | Ratio [6] | Activity [2] | Activity [3] | Flu intensity [7] |
| --- | --- | --- | --- | --- | --- | --- | --- | --- | --- |
| Cc1cc2c([n-]c3ccccc32)c2[n+]1C(C)NCC2 (centres undefined) [TABERNINE A] | 1.73 | 18.5 | 7.7 | 45.9 | 37.5 | 0.72 |  |  |  |
| Cc1cc2c([nH]c3ccccc32)c(CCN)n1 [TEBERNINE C] | 1.43 |  |  | 70.6 | 51.5 | 0.79 | 15.3 | 8.4 |  |
| COc1ccc(CCN(C)CCCC(C#N)(c2ccc(OC)c(OC)c2)C(C)C)cc1OC (centres undefined) [VERAPAMIL] |  |  |  |  |  |  |  |  | 98.9 |
| Cc1cc2c3ccccc3n3c2c(n1)CCNC3C (centres undefined) [TEBERNINE B] | 0.99 |  |  | 46.6 | 39.7 | 0.78 | 10.7 | 8.9 |  |
